Measured values taken from US20260374739A1, “SMALL MOLECULAR WEIGHT CHEMICAL COMPOUND TO ANTAGONIZE EPH-EPHRIN TETRAMERIZATION AND INHIBIT BIDIRECTIONAL SIGNALING” (THE BOARD OF REGENTS OF THE UNIVERSITY OF TEXAS SYSTEM, priority 2022, published 2026).

Assays:
EphB2-EphrinB2 = molecular target: T1, EphB2-EphrinB2 (Mus musculus, UniProt P54763); test: EphrinB2 co-immunoprecipitation with EphB2 in mouse brain after dosing; type: in vivo; settings: IP 10 mg/kg every 12 hr, 4 days
T1 construct: Whole brain protein lysates were then prepared in a Dounce homogenizer; from tissue; host or cells: brain of wild-type mice
T1 sequence (P54763 19-986): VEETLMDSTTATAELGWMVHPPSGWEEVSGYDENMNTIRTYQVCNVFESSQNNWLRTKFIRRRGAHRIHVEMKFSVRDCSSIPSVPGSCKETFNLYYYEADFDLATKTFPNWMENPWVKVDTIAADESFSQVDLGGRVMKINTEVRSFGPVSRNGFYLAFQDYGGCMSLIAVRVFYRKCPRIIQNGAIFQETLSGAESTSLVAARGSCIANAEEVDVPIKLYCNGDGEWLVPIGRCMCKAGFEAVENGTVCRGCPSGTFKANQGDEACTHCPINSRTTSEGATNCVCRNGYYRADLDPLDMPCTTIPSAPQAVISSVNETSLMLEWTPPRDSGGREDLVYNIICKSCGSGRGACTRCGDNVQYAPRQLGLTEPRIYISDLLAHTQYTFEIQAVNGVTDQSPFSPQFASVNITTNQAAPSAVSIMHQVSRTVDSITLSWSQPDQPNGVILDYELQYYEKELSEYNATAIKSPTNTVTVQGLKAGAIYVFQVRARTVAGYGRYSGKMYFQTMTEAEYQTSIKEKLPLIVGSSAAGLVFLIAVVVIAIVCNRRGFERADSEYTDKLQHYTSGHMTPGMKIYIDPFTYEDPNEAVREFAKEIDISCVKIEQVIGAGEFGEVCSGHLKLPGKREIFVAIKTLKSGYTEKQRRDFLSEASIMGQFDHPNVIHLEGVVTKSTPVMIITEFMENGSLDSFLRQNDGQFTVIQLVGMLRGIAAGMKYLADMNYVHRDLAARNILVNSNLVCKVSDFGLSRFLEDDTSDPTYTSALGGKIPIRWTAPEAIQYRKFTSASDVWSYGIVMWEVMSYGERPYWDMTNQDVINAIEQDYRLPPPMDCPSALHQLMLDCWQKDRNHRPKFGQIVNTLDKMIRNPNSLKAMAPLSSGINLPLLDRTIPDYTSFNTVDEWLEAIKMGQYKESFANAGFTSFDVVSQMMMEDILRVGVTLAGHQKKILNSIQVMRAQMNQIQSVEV
Experimental: Wild-type mice aged 10-12 weeks were IP injected every 12 hr for four days with vehicle (PBS) or 10 mg/kg of 2×·HCl salt forms of A20 (in PBS), A20-I (in PBS), or 3511-I, in 94% PBS/6% DMSO) for a total of 8 injections. Exactly 2 hr after final injection of A20 chemical, brains were dissected and frozen at −80 °C. Whole brain protein lysates were then prepared in a Dounce homogenizer using 5 ml PLC lysis buffer, and 1 ml of lysate was used for immunoprecipitation (IP) with 1 μg goat anti-EphB2 antibody, followed by immunoblot (IB) analysis with goat anti-EphB2, rabbit anti-phosphoEphB1/B2 (pEphB1/B2), and mouse anti-EphrinB2 antibodies using appropriate HRP conjugated secondary antibodies and chemiluminescent detection methods.
FIG. 79A depicts an illustrative immunoblot showing expression of EphB2, phospho-EphB1/B2, and EphrinB2 (co-IP) in the mouse brains. […] The level of co-immunoprecipitated EphrinB2 from the brains of A20 chemical injected animals was generally lower as indicated by fainter bands. FIGS. 79B and 79C show quantification of band intensities (number of photons detected) to obtain ratios of pEphB/EphB2 as a measure of EphB2 receptor activation levels (FIG. 79B) and ratios of EphrinB2/EphB2 as a measure of how much EphrinB2 is co-immunoprecipitated with the EphB2 receptor (FIG. 79C).

[1] = test system: Zymosan-induced mechanical pain in mice; test: Zymosan inflammatory pain, mechanical; type: in vivo, mouse; settings: PO; for mechanical pain ratio: vehicle about 3
Experimental: An alternative and potentially faster pain model using Zymosin (an inflammatory agent like CFA) to induce inflammatory pain was tested. […] Mice were first acclimated to the pain testing set ups and then subjected to baseline mechanical and thermal pain measurements. Early in the morning the following day, the left hind paws were injected subcutaneously with 30 μL of Zymosan (5 mg/ml in PBS; Z4250, Sigma-Aldrich). Two hours after the Zymosan injection, the left hind paws were assessed for thermal pain using Hargreaves device (2-4 hr), and then left paws tested for mechanical pain using VF filaments (4-6 hr), and then again for thermal pain (6-8 hr). Data from two independent experiments were pooled to increase the n values for the three different genotypes. […] Thermal pain increased in all group following Zymosan injury as indicated by a decreased average response time to the infrared heat source in all animals assessed, and the level of pain intensified from the 2-4 hr testing period to the 6-8 hr period.
Inflammatory pain was induced by subcutaneous injection of 30 μl of 5 mg/ml Zymosan into the right hind paws of 12 wild-type adult male mice (5-6 months age, 129×1/SvJ background) that in previous days were acclimated to the testing chambers and assessed to obtain baseline pain measurements. After 15 min, mice were orally dosed with either vehicle only (97% PBS/3% DMSO) or with 20, 10, or 5 mg/kg of A20 (2×·HCl salt in vehicle), 3 mice for each condition. Two hours after Zymosan injection, the right hind paws were assessed for thermal pain using Hargreaves device (2-4 hr), then mice were orally dosed again with vehicle only or A20 chemicals, and then right paws tested for mechanical pain using VF filaments (4-6 hr), and then again for thermal pain (6-8 hr).
Inflammatory pain was induced by subcutaneous injection of 30 μl of 5 mg/ml Zymosan into the left hind paws of 9 wild-type adult males (5-6 months age, 129/CD1 mixed background) that in previous days were acclimated to the testing chambers and assessed to obtain baseline pain measurements. After 15 min, mice were orally dosed with either vehicle only (97% PBS/3% DMSO) or with 20 mg/kg of 3511-I (2×·HCl salt in vehicle), or 20 mg/kg BQPB4 (3×·HCl salt in 97% sunflower seed oil/3% DMSO), 3 mice for each condition. Two hours after Zymosan injection, the left […] hind paws were assessed for mechanical pain using VF filaments (2-4 hr), then mice were orally dosed again with vehicle only or A20 chemicals, and then left hind paws tested for thermal pain using Hargreaves device (4-6 hr), and then again for mechanical pain (6-8 hr).

| Structure (SMILES) | association of EphrinB2 with EphB2 in brain (EphB2-EphrinB2) | mechanical pain [1] | mechanical pain ratio [1] |
| --- | --- | --- | --- |
| Oc1c(I)cc(CN2CCOCC2)c2cccnc12 [Compound 7, 7-iodo-5-(morpholinomethyl)quinolin-8-ol] | reduced level of association with EphrinB2 |  |  |
| Oc1c(Br)cc(CN2CCOCC2)c2cccnc12 [Compound 5, 7-bromo-5-(morpholinomethyl)quinolin-8-ol] | reduced level of association with EphrinB2 | significant reductions in both mechanical and thermal pain | ~1 |
| COc1ccccc1N1CCN(Cc2cc(I)c(O)c3ncccc23)CC1 [Compound 71, 7-iodo-5-((4-(2-methoxyphenyl)piperazin-1-yl)methyl)quinolin-8-ol] | reduced level of association with EphrinB2 | somewhat blunted mechanical pain response |  |
| Oc1c(Br)cc(CN2CCN(c3ccc(Br)cc3)CC2)c2cccnc12 [Compound 28, 7-bromo-5-((4-(4-bromophenyl)piperazin-1-yl)methyl)quinolin-8-ol] |  | essentially no enhanced mechanical pain sensitivity | ~1 |
